Assay results published in patent US20170202792A1, “METHOD FOR TREATING TAU-ASSOCIATED DISEASES” (NATIONAL TAIWAN NORMAL UNIVERSITY, priority 2016, published 2017).

How the values were obtained:
3×Tg-AD mice = test: Morris water maze (MWM) test; format: in vivo, mouse
Procedure: (§1) Hyperglycemia was induced by streptozotocin (STZ) to accelerated Alzheimer's disease progression of 6-month-old male transgenic 3×Tg−AD mice. Half of the 3×Tg−AD mice (n=30) received STZ (100 mg/kg) intraperitoneal injection at days 1, 2, 8, and 9 respectively as the high blood glucose group (HBG); another half of the 3×Tg-AD mice (n=30) received sodium citrate (0.1 M) at the same time points as the normal blood glucose group (NBG). Then, HBG and NBG were divided into two groups respectively to give four groups such as NBG-compound (I), HBG-compound (I), NBG-DMSO, and HBG-DMSO with n=15 in each group; wherein 0.25 mg/kg of compound (I) (in 30 μL) were intraperitoneal injected into those mice of NBG-compound (I) and HBG-compound (I) groups daily since day 14 for 28 days, and 30 μL of DMSO solvent were intraperitoneal injected into those mice of NBG-DMSO and HBG-DMSO groups daily since day 14 for 28 days. Both mouse body weight (BW) and blood glucose (BG) were monitored every week.
Morris water maze (MWM) was conducted to evaluate the learning and memory ability of the mice at days 34-42. At first, during the 4 training days, each of the mice received four trails a day, wherein each of the mice was released into the water from a starting point that randomly varied between trials, and the time required for each of the mice to find the hidden platform to escape from the water maze (escape latency) was calculated, and the curve of 4 training days represent the learning profile of mice. 24 hours after the final training trial, the mice underwent three testing trials to determine the time required to find the hidden platform as a measure of spatial learning acquisition. The probe trials were conducted 48 hours after the end of the testing trials to evaluate the long-term spatial memory, wherein each mouse was allowed to swim freely in a pool without platform for 60 seconds, and the duration of the mouse spent in the target quadrant (where the platform was originally disposed) was measured to represent the degree of memory consolidation after learning.

[1] = test system: GFAP (astrocytes) and Iba1 (microglia); test: Immunohistochemical staining of GFAP and Iba1 (neuro-inflammation in hippocampus); format: in vivo, mouse; settings: 0.25 mg/kg i.p. daily 28 days
Procedure: as §1
After the brain tissue of the mice were fixed and dehydrated, the tissue was cryosectioned (30 μm). The cryosections were then washed with phosphate buffered saline (PBS) three times. After the optimal cutting temperature compound (OCT) was removed, 3% H2O2was used to remove the endogenous peroxidase, and the cryosection was blocked by the blocking solution for 1 hour to reduce non-specific antigen reactions. The primary antibodies GFAP (astrocytes) and Iba1 (microglia) were added and reacted for 12 hours, the secondary antibody (1:200 dilution in blocking solution, Vecter) was added and reacted for 1 hour, and then, the avidin-biotin complex was added and reacted for 1 hour. Finally, DAB-kit was used for coloring. All the stained sections were attached to the slides, dried, dehydrated, and mounted for imaging and quantification (Image Pro Plus) to evaluate the neuro-inflammation in mouse hippocampus. The quantification results were shown in Table 2, wherein ↑↑↑, ↓↓↓:p<0.001.

GRP78 = test: Western blot of GRP78 expression in tauRD-DsRed SH-SY5Y cells; format: cell-based, human; settings: untreated = 100%
Excerpt: Furthermore, chaperones are molecules essential for proper protein folding which play a key role in protein-folding disorders in central nervous system. […] Moreover, the upregulation of endoplasmic reticulum chaperones such as glucose-regulated protein, 78 kDa (GRP78) is a cellular protective response against AD (Hoshino et al., 2007. Endoplasmic reticulum chaperones inhibit the production of amyloid-(3 peptides. Biochem. J. 402, 581-589). Accordingly, the GRP78 and HSPB1 expression in tauRD-DsRed SH-SYSY cells treated by Congo red and compound (I) with or without doxycycline were analyzed.
Western blotting analysis was applied for examining the expressions of HSPB1 and GRP78, the method was as follows: total proteins were extracted using RIPA buffer, which comprised 50 mM Tris-HCl, 150 mM NaCl, 1 mM EDTA, 1 mM EGTA, 0.1% SDS, 0.5% sodium deoxycholate, 1% Triton X-100, and a protease inhibitor cocktail (Calbiochem). […] Next, immunoreactive bands were detected using horseradish peroxidase-conjugated goat anti-mouse, goat anti-rabbit, or donkey anti-goat IgG antibodies (1:5000; GeneTex) and chemiluminescent substrate (Millipore).

[2] = test system: transgenic flies overexpressing tau protein driven by Eq-gal4 (Eq>tau); test: In vivo tau toxicity, notal bristle number of flies; set-up: species or system Drosophila; settings: 25 μM and 50 μM of compound (I) vs DMSO
Procedure: 10 Eq-ga14 flies were treated with DMSO as the control group, and transgenic flies overexpressing tau protein driven by Eq-ga14 (Eq>tau) were treated with DMSO, 25 μM of compound (I), and 50 μM of compound (I) respectively in each group of 10 flies. The number of notal bristle of the flies was then calculated.

With CCCCC/C=C\C/C=C\C/C=C\C/C=C\CCCC(=O)Nc1ccc(O)cc1 [compound (I), (5Z, 8Z, 11Z,14Z)-N-(4-Hydroxyphenyl)icosa-5 ,8 , 11,14-tetraen amide] the “duration in target quadrant of probe trial in MWM (long-term memory)” value (3×Tg-AD mice; 0.25 mg/kg i.p. daily) was “ameliorate the long-term memory damages”, the “swimming velocity in MWM” value (3×Tg-AD mice; 4 training days, 0.25 mg/kg i.p. daily, among 4 groups) was “no difference” and the “escape latency of 4 training days in MWM (learning ability)” value (3×Tg-AD mice; high blood glucose groups, 0.25 mg/kg i.p. daily vs DMSO) was “better learning ability”. For the same compound, the GFAP staining quantification ([1]; HBG 3×Tg-AD mice) was 15.63 ± 2.05↓↓↓, the Iba1 staining quantification ([1]; HBG 3×Tg-AD mice) was 29.43 ± 0.78↓↓↓ and the GFAP staining quantification ([1]; NBG 3×Tg-AD mice) was 3.33 ± 1.02. For the same compound, the Iba1 staining quantification ([1]; NBG 3×Tg-AD mice) was 34.25 ± 2.19, the “expression of GRP78 relative to untreated cells” value (GRP78) was 189% and the “number of notal bristle” value [2] was “effectively reduced the notal bristle loss”.
